For the assay, the target named is T1, PRMT6 (Homo sapiens, UniProt Q96LA8).
T1 construct: Flag-PRMT6-His; made in house; host or cells: HEK 293F cells (BacMam virus)
The assay is described as follows: PRMT6 Biochemical Assay (3H-SAM Flashplate, peptide substrate). The conditions noted are these: 30 min preincubation, room temperature. The text has this:
S-adenosylmethionine (SAM), S-adenosylhomocysteine (SAH), bicine, Tween20, dimethylsulfoxide (DMSO), bovine skin gelatin (BSG), sodium butyrate and Tris(2-carboxyethyl)phosphine hydrochloride solution (TCEP) were purchased from Sigma-Aldrich at the highest level of purity possible. ^3H-SAM was purchase from American Radiolabeled Chemicals with a specific activity of 80 Ci/mmol. 384-well streptavidin Flashplates were purchased from PerkinElmer.
Peptide representative of human histone H4 residues 36-50 was synthesized with an N-terminal linker-affinity tag motif and a C-terminal amide cap by 21st Century Biochemicals. The peptide was purified by high-performance liquid chromatography (HPLC) to greater than 95% purity and confirmed by liquid chromatography mass spectrometry (LC-MS). The sequence was Biot-Ahx-[…]-amide and contained a monomethylated lysine at position 44 (SEQ ID NO.:5).
Full-length human PRMT6 (NM_018137.2) transcript clone was amplified from an HEK 293 cDNA library, incorporating a flanking 5′ sequence encoding a FLAG tag ([…]) (SEQ ID NO.:6) fused directly to Ser 2 of PRMT6 and a 3′ sequence encoding a hexa His sequence (HHHHHH) fused directly to Asp 375. The amplified gene was subcloned into pFastBacMam (Viva Biotech).
Recombinant baculovirus were generated according to Bac-to-Bac kit instructions (Life Technologies). […] Infections were carried out at 37° C. for 48 hours, harvested by centrifugation, and stored at −80° C. for purification.
Column was washed with 20 mM imidazole in the same buffer and Flag-PRMT6-His was eluted with 150 mM imidazole. Pooled fractions were dialysed against buffer Ni-A and further purified by anti-flag M2 affinity chromatography. Flag-PRMT6-His was eluted with 200 ug/ml FLAG peptide in the same buffer. Pooled fractions were dialysed in 20 mM Tris, 150 mM NaCl, 10% glycerol and 5 mM β-mercaptoethanol, pH 7.8. The purity of recovered protein was 95%.
General Procedure for PRMT6 Enzyme Assays on Peptide Substrates.
The assays were all performed in a buffer consisting of 20 mM Bicine (pH=7.6), 1 mM TCEP, 0.005% BSG, and 0.002% Tween 20, prepared on the day of use. Compounds in 100% DMSO (1 ul) were spotted into a polypropylene 384-well V-bottom plates (Greiner) using a Platemate Plus outfitted with a 384-channel head (Thermo Scientific). DMSO (1 ul) was added to Columns 11, 12, 23, 24, rows A-H for the maximum signal control and 1 ul of SAH, a known product and inhibitor of PRMT6, was added to columns 11, 12, 23, 24, rows I-P for the minimum signal control. A cocktail (40 ul) containing the PRMT6 enzyme was added by Multidrop Combi (Thermo-Fisher). The compounds were allowed to incubate with PRMT6 for 30 min at room temperature, then a cocktail (10 ul) containing SAM and peptide was added to initiate the reaction (final volume=51 ul). The final concentrations of the components were as follows: PRMT6 was 1 nM, ^3H-SAM was 200 nM, non-radiolabeled SAM was 250 nM, peptide was 75 nM, SAH in the minimum signal control wells was 1 mM, and the DMSO concentration was 2%. The assays were stopped by the addition of non-radiolabeled SAM (10 ul) to a final concentration of 400 uM, which dilutes the ^3H-SAM to a level where its incorporation into the peptide substrate is no longer detectable. 50 ul of the reaction in the 384-well polypropylene plate was then transferred to a 384-well Flashplate and the biotinylated peptides were allowed to bind to the streptavidin surface for at least 1 hour before being washed once with 0.1% Tween20 in a Biotek ELx405 plate washer. The plates were then read in a PerkinElmer TopCount plate reader to measure the quantity of ^3H-labeled peptide bound to the Flashplate surface, measured as disintegrations per minute (dpm) or alternatively, referred to as counts per minute (cpm).
Where dpm=disintegrations per minute, cmpd=signal in assay well, and min and max are the respective minimum and maximum signal controls. […]

Where only a bound is given, the exact number is not on record here.

T1 sequence (Q96LA8 with tags, fused parts or gaps): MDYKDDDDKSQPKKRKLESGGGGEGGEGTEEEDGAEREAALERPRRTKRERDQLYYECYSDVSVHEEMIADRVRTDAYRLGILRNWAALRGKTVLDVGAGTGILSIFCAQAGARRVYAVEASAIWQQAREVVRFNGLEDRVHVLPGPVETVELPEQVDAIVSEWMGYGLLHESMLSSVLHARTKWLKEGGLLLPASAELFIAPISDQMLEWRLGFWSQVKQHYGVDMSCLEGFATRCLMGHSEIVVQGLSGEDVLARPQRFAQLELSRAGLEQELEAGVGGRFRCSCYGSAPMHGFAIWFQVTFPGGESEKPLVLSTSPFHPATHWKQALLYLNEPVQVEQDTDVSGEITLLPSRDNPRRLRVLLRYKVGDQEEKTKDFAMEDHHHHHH

Compound `CN(CCN)Cc1c[nH]nc1-c1ccsc1` [Compound 3] displayed an IC50 of at most 100 nM.

Compound `CN(CCN)Cc1c[nH]nc1-c1cncnc1` [Compound 4] showed an IC50 of 101 to 1000 nM.

`CN(CCN)Cc1c[nH]nc1-c1cccs1` [Compound 5] registered an IC50 of 101 to 1000 nM.

Regarding `CN(CCN)Cc1c[nH]nc1-c1ccco1` [Compound 6], the IC50 fell in the range of 101 to 1000 nM.

For `CN(CCN)Cc1c[nH]nc1-c1ccoc1` [Compound 7], the IC50 was 101 to 1000 nM.

With `CN(CCN)Cc1c[nH]nc1-c1cnn(C)c1` [Compound 8], the IC50 is at most 100 nM.

The compound `CN(CCN)Cc1c[nH]nc1-c1ccc2scnc2c1` [Compound 9] returned an IC50 of at most 100 nM.

As for `Cc1noc(C)c1-c1n[nH]cc1CN(C)CCN` [Compound 10], the IC50 is at least 10000 nM.

`COc1ncc(-c2n[nH]cc2CN(C)CCN)cn1` [Compound 11] displayed an IC50 of 101 to 1000 nM.

`CN(CCN)Cc1c[nH]nc1-c1cn[nH]c1` [Compound 12] had an IC50 of 101 to 1000 nM.

In the case of `CN(CCN)Cc1c[nH]nc1-c1cnc2[nH]ccc2c1` [Compound 13], the IC50 is at most 100 nM.

With `CN(CCN)Cc1c[nH]nc1-c1cc[nH]n1` [Compound 14], the IC50 is 1010 to 3000 nM.

`CN(CCN)Cc1c[nH]nc1-c1ccnn1C` [Compound 15]: the IC50 was in the range of 1010 to 3000 nM.

In turn, `CCn1cc(-c2n[nH]cc2CN(C)CCN)cn1` [Compound 16] gave a half-inhibitory concentration (IC50) of at most 100 nM.

`CN(CCN)Cc1c[nH]nc1-c1cnn(-c2ccccc2)c1` [Compound 17]: the IC50 is at most 100 nM.

In the case of `CN(CCN)Cc1c[nH]nc1-c1cnn(CCO)c1` [Compound 18], the IC50 is at most 100 nM.

Compound `CN(CCN)Cc1c[nH]nc1-c1ccc2cnn(C)c2c1` [Compound 19, N^1-methyl-N^1-((3-(1-methyl-1H-indazol-6-yl)-1H-pyrazol-4-yl)methyl)ethane-1,2-diamine] registered an IC50 of at most 100 nM.

`CN(CCN)Cc1c[nH]nc1-c1ccc2ncnn2c1` [Compound 20]: the IC50 was at most 100 nM.

`CN(CCN)Cc1c[nH]nc1-c1ccc2nccn2c1` [Compound 21, N^1-((3-(imidazo[1,2-a]pyridin-6-yl)-1H-pyrazol-4-yl)methyl)-N^1-methylethane-1,2-diamine] gave an IC50 of at most 100 nM.

The compound `CC(C)n1cc(-c2n[nH]cc2CN(C)CCN)cn1` [Compound 22] returned an IC50 of at most 100 nM.

In the case of `CC(C)Cn1cc(-c2n[nH]cc2CN(C)CCN)cn1` [Compound 23, N^1-((2′-isobutyl-3,4′-bi(1H-pyrazol)-4-yl)methyl)-N^1-methylethane-1,2-diamine], the IC50 is at most 100 nM.

In the case of `CN(CCN)Cc1c[nH]nc1-c1cnn(Cc2ccccc2)c1` [Compound 24, N^1-((1′-benzyl-3,4′-bi(1H-pyrazol)-4-yl)methyl)-N^1-methylethane-1,2-diamine], the half-inhibitory concentration (IC50) is at most 100 nM.

For the compound `Cc1n[nH]c(C)c1-c1n[nH]cc1CN(C)CCN` [Compound 25], the IC50 is at least 10000 nM.

As to `CN(CCN)Cc1c[nH]nc1-c1ccc2[nH]ncc2c1` [Compound 27, N^1-((3-(1H-indazol-5-yl)-1H-pyrazol-4-yl)methyl)-N^1-methylethane-1,2-diamine], the IC50 was at most 100 nM.

`CN(CCN)Cc1c[nH]nc1-c1cnc(C2CC2)nc1` [Compound 28] showed an IC50 of 101 to 1000 nM.

`CN(CCN)Cc1c[nH]nc1-c1ccc[nH]1` [Compound 29] returned an IC50 of 1010 to 3000 nM.

In the case of `CN(CCN)Cc1c[nH]nc1-c1cccc2[nH]ncc12` [Compound 30], the IC50 is at most 100 nM.
